{"source": "patent US7429580B2", "about": "“Compositions of an anticonvulsant and an antipsychotic drug and methods of using the same for affecting weight loss” (Orexigen Therapeutics, Inc., priority 2004, dated 2008)", "key": {"mice": {"system": "mice", "assay": "Food intake in mice (acute, after fast / intra-peritoneal injection)", "type": "in vivo", "conditions": "for food intake: other preclinical experiments, each compound alone"}, "POMC neurons": {"system": "POMC neurons", "assay": "Electrophysiological activity of POMC neurons in brain slices from POMC-EGFP mice", "type": "cell-based", "procedure": "(§1) The electrophysiological activity of Proopiomelanocortin (POMC) neurons in brain slices from POMC-EGFP mice are recorded. The POMC neurons in these mice are identified by the expression of green fluorescent protein (EGFP) in these, and only these, cells. The frequency of action potentials in these neurons are recorded using standard electrophysiological techniques. In particular loose cell attached patch configuration is used to determine action potential frequency, whilst minimally disturbing the cells.\nas §1, with “particular,” for “particular”"}, "[1]": {"assay": "Rat-weight gain assay: rodent model of mirtazapine-induced weight gain", "type": "in vivo, rats", "conditions": "addition to concomitant mirtazapine treatment; doses tbd", "procedure": "We have developed a model to pre-clinically test the effects of mirtazapine on body weight gain. […] Initially, a dose of 30 mg/kg of zonisamide (bid) is used, but the dose in the experiment ranges from 20 mg/kg to 90 mg/kg (bid). […] Mirtazapine or setiptiline are used as solutions in minipumps. The concentration of the solution ranges between 0.1 μM to 10 mM. In some experiments, the concentration is calculated to provide a dose of about 1 mg/kg/day. In certain experiments, the concentration is 10 μM.\nIn a 4×3 design rats receive implants that secrete mirtazapine, or setiptiline, or vehicle. Some rats also receive co-treatment with saline, some receive zonisamide, some receive bupropion, and others receive co-treatment with zonisamide plus bupropion. In this way cohorts of 10 rats receive all possible combinations of the weight loss drug(s) with mirtazapine or setiptiline.\nFemale Sprague-Dawley rats weighing about 300 grams at the start of the experiment are used. Under isoflurane anesthesia, Alzet osmotic minipumps (2 ml2) are implanted subcutaneously between the shoulder blades. The rats are returned to their home cages after recovery. The minipumps deliver 5 μL per hour for 14 days. A range of doses of mirtazapine (from 0.1 to 20 mg/kg/day dissolved in DMSO/saline) are used. […] Food consumed and animal weights are recorded every 3 days, to minimize disruption of the animals."}, "[2]": {"assay": "Case study Example 13: zonisamide, paroxetine and risperidone", "type": "in vivo, human", "procedure": "They were therefore started on zonisamide 100 mg, incraesed to 200 mg. […] The dose was then increased to 300 mg and then to 600 mg."}, "[3]": {"assay": "Case study Example 14: zonisamide, olanzapine, valproate and bupropion", "type": "in vivo, human", "conditions": "for effect on weight gain resulting from olanzapine and valproate: summary of the case", "procedure": "At this point, zonisamide was added to their medication regimen at 100 mg/day and the dose was increased to 200 mg/day after two weeks."}, "[4]": {"assay": "Rodent model of olanzapine-induced weight gain", "type": "in vivo, rats", "conditions": "addition to concomitant olanzapine treatment (about 1.75 mg/kg/day); doses tbd", "procedure": "Rats receive implants that secrete olanzapine (or vehicle in control groups). Some also receive co-treatment with zonisamide; others get co-treatment with zonisamide plus bupropion. Initially, a dose of 30 mg/kg of zonisamide (bid) is used, but the dose in the experiment ranges from 20 mg/kg to 90 mg/kg (bid). […] Olanzapine is used as a solution in minipumps. The concentration of the solution ranges between 0.1 μM to 10 mM. In some experiments, the concentration is calculated to provide a dose of about 1.75 mg/kg/day. In certain experiments, the concentration is 10 μM.\nFemale Sprague-Dawley rats weighing about 300 grams at the start of the experiment are used. Under isoflurane anesthesia, Alzet osmotic minipumps (2 ml2) are implanted subcutaneously, between the shoulder blades. The rats are returned to their home cages after recovery. The minipumps deliver 5 μL per hour for 14 days. Olanzapine is dissolved in dH2O+10% dilute lactic acid. A pH of about 3.5 enables the olanzapine to dissolve completely and produce a golden solution. This pH level has no effect on the animals in either the drug groups or the vehicle group. The animals are housed individually and are supplied with standard laboratory chow. Food consumed and animal weights are recorded every 3 days, to minimize disruption of the animals."}, "[5]": {"assay": "Case study Example 12: zonisamide added to clonazepam, fluoxetine and lamotrogine", "type": "in vivo, human", "conditions": "person, bipolar disorder; zonisamide 100 mg qD added to clonazepam, fluoxetine, lamotrogine", "procedure": "A person having biopolar disorder, Type I, had been treated for just over year by their psychiatrist using clonazepam 1 mg qHS, fluoxetine 20 mg qd, and lamotrogine 300 mg qD. One particular complaint was that they had “constant thoughts of eating”. Their psychiatrist started them on zonisamide 100 mg qD. […] The dose was continued and despite multiple stressors at home, they continued to do well on the treatment regimen."}, "[6]": {"conditions": "cited from earlier work"}, "[7]": {"system": "serotonin and dopamine synthesis", "conditions": "cited from earlier work"}, "dopamine D2 receptors": {"molecular_target": "dopamine D2 receptors (Homo sapiens, UniProt P14416)", "sequence (P14416 whole entry)": "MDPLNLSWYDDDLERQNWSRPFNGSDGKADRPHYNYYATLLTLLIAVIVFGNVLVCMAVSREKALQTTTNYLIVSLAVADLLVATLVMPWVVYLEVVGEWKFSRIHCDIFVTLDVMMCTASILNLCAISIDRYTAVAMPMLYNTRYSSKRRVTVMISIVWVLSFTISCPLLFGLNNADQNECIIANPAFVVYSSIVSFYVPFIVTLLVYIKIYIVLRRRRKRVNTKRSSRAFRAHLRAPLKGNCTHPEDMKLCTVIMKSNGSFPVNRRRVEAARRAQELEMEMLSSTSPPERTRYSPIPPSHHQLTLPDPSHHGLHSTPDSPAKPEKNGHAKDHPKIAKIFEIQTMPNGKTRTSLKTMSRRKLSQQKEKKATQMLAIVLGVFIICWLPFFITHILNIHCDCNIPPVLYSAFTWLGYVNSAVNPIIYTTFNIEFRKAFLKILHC", "conditions": "cited from earlier work"}}, "note": "“Also recorded” adds a separate entry of the source. Like-named read-outs stand apart in the source and are kept apart here."}
{"smiles": "CC(NC(C)(C)C)C(=O)c1cccc(Cl)c1", "note": "(stereo not shown) [bupropion]", "values": [{"measurement": "food intake after intra-peritoneal injection", "setting": "mice; mice", "value": "pronounced effects on food intake"}, {"measurement": "food intake", "setting": "mice", "value": "inhibit food intake"}, {"measurement": "electrophysiological activity of POMC neurons", "setting": "POMC neurons", "value": "increase the electrophysiological activity of POMC neurons"}, {"measurement": "weight gain associated with mirtazapine", "setting": "[1]", "value": "decreases the weight gain associated with mirtazapine"}, {"measurement": "weight loss", "setting": "[2]; trial of bupropion alone, patient on paroxetine and risperidone", "value": "did not cause significant weight loss"}, {"measurement": "weight lost", "setting": "[3]; after 6 months, bupropion 150 mg/day added to olanzapine and valproate", "value": 23.6, "unit": "lbs"}, {"measurement": "adverse effect reported", "setting": "[3]; bupropion dose raised to 300 mg/day", "value": "feeling hyperactive"}, {"measurement": "adverse effect limiting higher dose", "setting": "[3]; higher dose (300-400 mg/day) of bupropion", "value": "precipitation of hypomanic symptoms"}, {"measurement": "weight regained", "setting": "[3]; over the next 10 months while continuing bupropion", "value": 10.6, "unit": "lbs"}, {"measurement": "effect on weight gain resulting from olanzapine and valproate", "setting": "[3]", "value": "helped in decreasing weight gain"}]}
{"smiles": "NS(=O)(=O)Cc1noc2ccccc12", "note": "[zonisamide]", "values": [{"measurement": "food intake after intra-peritoneal injection", "setting": "mice; mice", "value": "pronounced effects on food intake"}, {"measurement": "food intake over 24 hrs after intra-peritoneal injection", "setting": "mice; mice", "value": "pronounced effects on food intake"}, {"measurement": "food intake", "setting": "mice", "value": "inhibit food intake"}, {"measurement": "electrophysiological activity of POMC neurons", "setting": "POMC neurons", "value": "increase the electrophysiological activity of POMC neurons"}, {"measurement": "weight gain associated with mirtazapine", "setting": "[1]", "value": "decreases the weight gain associated with mirtazapine"}, {"measurement": "weight gain associated with olanzapine", "setting": "[4]", "value": "decrease the weight gain associated with olanzapine"}, {"measurement": "craving for food", "setting": "[5]", "value": "significantly reduced their craving for food"}, {"measurement": "weight gain", "setting": "[5]", "value": "prevented weight gain"}, {"measurement": "weight lost", "setting": "[2]; in 3 weeks, zonisamide 100 mg increased to 200 mg", "value": 12, "unit": "pounds"}, {"measurement": "weight relative to baseline", "setting": "[2]; in 5 months, zonisamide increased to 300 mg and then 600 mg", "value": "their weight returned to baseline"}, {"measurement": "weight lost", "setting": "[3]; over the next 4 months, zonisamide 100 then 200 mg/day added to bupropion, olanzapine, valproate", "value": 15, "unit": "lbs"}, {"measurement": "effect on weight gain resulting from olanzapine and valproate", "setting": "[3]", "value": "helped in further offsetting weight gain"}, {"measurement": "adverse effects", "setting": "[3]; zonisamide 100 then 200 mg/day added to bupropion, olanzapine, valproate", "value": "no adverse effects"}, {"measurement": "weight reducing effects in humans", "setting": "[6]; Gadde et al, 2003, 2001", "value": "well demonstrated in humans"}, {"measurement": "tolerability / side effects", "setting": "[6]; compared with placebo treatment, Gadde et al, JAMA 2003", "value": "well tolerated; also recorded: fatigue being the only side effect that occurred more frequently than with placebo treatment"}, {"measurement": "weight loss", "setting": "[6]; patients presenting with primary obesity, Gadde et al, JAMA 2003", "value": "significant weight loss"}, {"measurement": "serotonin and dopamine synthesis rates", "setting": "[7]", "value": "increases serotonin and dopamine synthesis rates"}, {"measurement": "stimulation of dopamine D2 receptors", "setting": "dopamine D2 receptors", "value": "stimulates dopamine D2 receptors"}]}
